Data from the supplement of paper PMC11208160.

Assay: recombinant barcode read abundance after kanamycin selection (control-corrected) (log10(CPM+1)); higher = more efficient recombination; sequences stand for … in AGTGCAGAGAAAATCGGCCAGTTTTCTCTGCCTGCAGTCCGCATGCCGT…AGATTTATGCAGCGGACTGCCTTTCTCCCAAAGTGATAAACCGGACAGTATCATGGACCGGTTTTCCCGGTAATCCGTATTTGCAAGGTTGGTTTCACT; site = the 11-nt target
In short: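 Recombination efficiency draws on barcodes counted at recombinant junctions in a pooled E. coli screen of targets paired with IS621 bridge RNA target-binding loops. The counts were converted to counts per million, averaged and corrected against the chloramphenicol/ampicillin LB agar control, then reported as log10(CPM+1). Selection plates held chloramphenicol/ampicillin/kanamycin with 0.1 mM IPTG, with two replicates per condition.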
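Also: IS621 recombinase and bridge RNA in Escherichia coli cells.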

Row | Sequence | recombinant barcode read abundance (log10)
1 | CTCTATACTTGGGTTCTAACCTGTTGCCA (site CTCTAGACTTG) | 0.511
2 | CTCTATACTTGGGTTCTAACCTGTTGCCA (site CTCTATACTTG) | 0.0112
3 | CTCTATCCTTGGGTTCTAACCTGTTGCGT (site CTCTAACCTAC) | 0.526
4 | CTCTATCCTTGGGTTCTAACCTGTTGCGT (site CTCTACCCTAC) | 0.218
5 | CTCTATCCTTGGGTTCTAACCTGTTGCGT (site CTCTAGCCTAC) | 0.376
6 | CTCTATCCTTGGGTTCTAACCTGTTGCGT (site CTCTATCCTAC) | 0.551
7 | CTCTCGTCTTGGGTTCTAACCTGTTGCGT (site CTCTCGTCTAA) | 0.0993
8 | CTCTCGTCTTGGGTTCTAACCTGTTGCGT (site CTCTCGTCTAC) | 1.19
9 | CTCTCGTCTTGGGTTCTAACCTGTTGCGT (site CTCTCGTCTAG) | 0.291
10 | CTCTCGTCTTGGGTTCTAACCTGTTGCGT (site CTCTCGTCTAT) | 0.0817
11 | CTCTCTCCTTGGGTTCTAACCTGTTGCCT (site CTCTCTCCTAG) | 0.261
12 | CTCTCTCCTTGGGTTCTAACCTGTTGCCT (site CTCTCTTCTAG) | 0.148
13 | CTCTGGACTTGGGTTCTAACCTGTTGCAC (site CTCTGGACTGT) | 0.64
14 | CTCTGGACTTGGGTTCTAACCTGTTGCAC (site CTGTGGACTCT) | 0.058
15 | CTCTGGGCTTGGGTTCTAACCTGTTGCCT (site CTCTAGGCTAG) | 0.179
16 | CTCTGGGCTTGGGTTCTAACCTGTTGCCT (site CTCTCGGCTAG) | 0.29
17 | CTCTGGGCTTGGGTTCTAACCTGTTGCCT (site CTCTGGGCTAG) | 0.15
18 | CTCTGGGCTTGGGTTCTAACCTGTTGCCT (site CTCTTGGCTAG) | 0.198
19 | CTCTTGGCTTGGGTTCTAACCTGTTGCCT (site CTCTAGGCTAG) | 0.261
20 | CTCTTGGCTTGGGTTCTAACCTGTTGCCT (site CTCTCGGCTAG) | 0.139
21 | CTCTTGGCTTGGGTTCTAACCTGTTGCCT (site CTCTGGGCTAG) | 0.0739
22 | CTCTTGGCTTGGGTTCTAACCTGTTGCCT (site CTCTTGGCTAG) | 0.0663

Row | Sequence | recombinant barcode read abundance (log10)
23 | CTCTTGTCTTGGGTTCTAACCTGTTGCCA (site CGCTTGTCTCG) | 0.391
24 | CTCTTGTCTTGGGTTCTAACCTGTTGCCA (site CTCTTGTCTTG) | 0
25 | CTGAGCCCTTGGGTTCTAACCTGTTGCCT (site CTGAGCCCTAG) | 0.6
26 | CTGAGCCCTTGGGTTCTAACCTGTTGCCT (site CTGCGCCCTAG) | 0.448
27 | CTGAGCCCTTGGGTTCTAACCTGTTGCCT (site CTGGGCCCTAG) | 0.354
28 | CTGAGCCCTTGGGTTCTAACCTGTTGCCT (site CTGTGCCCTAG) | 0.0331
29 | CTGAGCCCTTGGGTTCTAACCTGTTGCTG (site CAGAGCCCTCA) | 0.327
30 | CTGAGCCCTTGGGTTCTAACCTGTTGCTG (site CTGAGCCCTCA) | 1.5
31 | CTGCACCCTTGGGTTCTAACCTGTTGCCT (site CGCCACCCTAG) | 0.411
32 | CTGCACCCTTGGGTTCTAACCTGTTGCCT (site CTGCACCCTAG) | 1.57
33 | CTGCTGTCTTGGGTTCTAACCTGTTGCCA (site CTGATGTCTTG) | 0.154
34 | CTGCTGTCTTGGGTTCTAACCTGTTGCCA (site CTGCTGTCTTG) | 0.095
35 | CTGCTGTCTTGGGTTCTAACCTGTTGCCA (site CTGGTGTCTTG) | 0.402
36 | CTGCTGTCTTGGGTTCTAACCTGTTGCCA (site CTGTTGTCTTG) | 0.0953
37 | CTGGATCCTTGGGTTCTAACCTGTTGCCT (site CTCGACCCTAG) | 0.0729
38 | CTGGATCCTTGGGTTCTAACCTGTTGCCT (site CTGGATCCTAG) | 2.25
39 | CTGGGCTCTTGGGTTCTAACCTGTTGCCA (site CTGGGCTCTTG) | 1.14
40 | CTGGGCTCTTGGGTTCTAACCTGTTGCCA (site GTGGGCTCTAG) | 0.282
41 | CTGGGTTCTTGGGTTCTAACCTGTTGCCT (site CAGGGTTCTAG) | 0.0887
42 | CTGGGTTCTTGGGTTCTAACCTGTTGCCT (site CCGGGTTCTAG) | 0.138
43 | CTGGGTTCTTGGGTTCTAACCTGTTGCCT (site CGGGGTTCTAG) | 0.312
44 | CTGGGTTCTTGGGTTCTAACCTGTTGCCT (site CTGGGTTCTAG) | 0.17

Row | Sequence | recombinant barcode read abundance (log10)
45 | CTGGTCACTTGGGTTCTAACCTGTTGCGG (site CTAGACACTCC) | 0.11
46 | CTGGTCACTTGGGTTCTAACCTGTTGCGG (site CTGGTCACTCC) | 2.74
47 | CTGGTCCCTTGGGTTCTAACCTGTTGCGG (site CTGATCCCTCC) | 0.983
48 | CTGGTCCCTTGGGTTCTAACCTGTTGCGG (site CTGCTCCCTCC) | 0.0151
49 | CTGGTCCCTTGGGTTCTAACCTGTTGCGG (site CTGGTCCCTCC) | 2.72
50 | CTGGTCCCTTGGGTTCTAACCTGTTGCGG (site CTGTTCCCTCC) | 0.151
51 | CTGTCTCCTTGGGTTCTAACCTGTTGCGT (site AGAAGCACTTG) | 0.11
52 | CTGTCTCCTTGGGTTCTAACCTGTTGCGT (site CTGTCTCCTAC) | 0.833
53 | CTGTGGACTTGGGTTCTAACCTGTTGCAG (site CTCTGGACTGT) | 0
54 | CTGTGGACTTGGGTTCTAACCTGTTGCAG (site CTGTGGACTCT) | 1.13
55 | CTGTTATCTTGGGTTCTAACCTGTTGCCT (site CTATTATCTAG) | 0.127
56 | CTGTTATCTTGGGTTCTAACCTGTTGCCT (site CTGTTATCTAG) | 0.237
57 | CTTAAATCTTGGGTTCTAACCTGTTGCCT (site CTTAAATCTAG) | 0.0558
58 | CTTAAATCTTGGGTTCTAACCTGTTGCCT (site CTTCAATCTAG) | 0.0867
59 | CTTAAATCTTGGGTTCTAACCTGTTGCCT (site CTTGAATCTAG) | 0.24
60 | CTTAAATCTTGGGTTCTAACCTGTTGCCT (site CTTTAATCTAG) | 0.165
61 | CTTACCGCTTGGGTTCTAACCTGTTGCCT (site CTTACAGCTAG) | 0.137
62 | CTTACCGCTTGGGTTCTAACCTGTTGCCT (site CTTACCGCTAG) | 1.19
63 | CTTACCGCTTGGGTTCTAACCTGTTGCCT (site CTTACGGCTAG) | 0.235
64 | CTTACCGCTTGGGTTCTAACCTGTTGCCT (site CTTACTGCTAG) | 0.273
65 | CTTAGCTCTTGGGTTCTAACCTGTTGCCT (site CGTAGGTCTAG) | 0.009
66 | CTTAGCTCTTGGGTTCTAACCTGTTGCCT (site CTTAGCTCTAG) | 1.15

Row | Sequence | recombinant barcode read abundance (log10)
67 | CTTAGGACTTGGGTTCTAACCTGTTGCCC (site CTTAGGACTAG) | 0.374
68 | CTTAGGACTTGGGTTCTAACCTGTTGCCC (site CTTAGGACTCG) | 0.283
69 | CTTAGGACTTGGGTTCTAACCTGTTGCCC (site CTTAGGACTGG) | 0.404
70 | CTTAGGACTTGGGTTCTAACCTGTTGCCC (site CTTAGGACTTG) | 0.00992
71 | CTTCACGCTTGGGTTCTAACCTGTTGCCT (site CTTCACACTAT) | 0.177
72 | CTTCACGCTTGGGTTCTAACCTGTTGCCT (site CTTCACGCTAG) | 1.21
73 | CTTCAGCCTTGGGTTCTAACCTGTTGCCT (site CTTCAACCTAG) | 0.612
74 | CTTCAGCCTTGGGTTCTAACCTGTTGCCT (site CTTCACCCTAG) | 0.259
75 | CTTCAGCCTTGGGTTCTAACCTGTTGCCT (site CTTCAGCCTAG) | 0.789
76 | CTTCAGCCTTGGGTTCTAACCTGTTGCCT (site CTTCATCCTAG) | 0
77 | CTTCAGGCTTGGGTTCTAACCTGTTGCCT (site CTTCAGGCTAG) | 0.594
78 | CTTCAGGCTTGGGTTCTAACCTGTTGCCT (site CTTGAGACTAG) | 0.0551
79 | CTTCCTTCTTGGGTTCTAACCTGTTGCCT (site CTCCCTTCTAA) | 0.128
80 | CTTCCTTCTTGGGTTCTAACCTGTTGCCT (site CTTCCTTCTAG) | 0.543
81 | CTTCGAGCTTGGGTTCTAACCTGTTGCCG (site CTTCGAGCTCA) | 0.112
82 | CTTCGAGCTTGGGTTCTAACCTGTTGCCG (site CTTCGAGCTCC) | 0.0907
83 | CTTCGAGCTTGGGTTCTAACCTGTTGCCG (site CTTCGAGCTCG) | 0.873
84 | CTTCGAGCTTGGGTTCTAACCTGTTGCCG (site CTTCGAGCTCT) | 0.138
85 | CTTGAGCCTTGGGTTCTAACCTGTTGCGT (site CTTGAGCCTAC) | 2.87
86 | CTTGAGCCTTGGGTTCTAACCTGTTGCGT (site GTTGAGTCTAC) | 0.0339
